From article PMC8155809 (The Journal of General Physiology, 2021)
Blank lines part the entries; values can stand above or below the compound they belong to.

Columns and labels:
[1] = target: T1, human TREK-2 (Homo sapiens, UniProt P57789); assay: Macroscopic TREK-2 currents in giant excised patches from Xenopus oocytes; type: cell-based
T1 construct: expressed in transfected cells; host or cells: Xenopus laevis oocytes injected with in vitro transcribed mRNA (pFAW vector)
T1 sequence (P57789 1-543 isoform P57789-4): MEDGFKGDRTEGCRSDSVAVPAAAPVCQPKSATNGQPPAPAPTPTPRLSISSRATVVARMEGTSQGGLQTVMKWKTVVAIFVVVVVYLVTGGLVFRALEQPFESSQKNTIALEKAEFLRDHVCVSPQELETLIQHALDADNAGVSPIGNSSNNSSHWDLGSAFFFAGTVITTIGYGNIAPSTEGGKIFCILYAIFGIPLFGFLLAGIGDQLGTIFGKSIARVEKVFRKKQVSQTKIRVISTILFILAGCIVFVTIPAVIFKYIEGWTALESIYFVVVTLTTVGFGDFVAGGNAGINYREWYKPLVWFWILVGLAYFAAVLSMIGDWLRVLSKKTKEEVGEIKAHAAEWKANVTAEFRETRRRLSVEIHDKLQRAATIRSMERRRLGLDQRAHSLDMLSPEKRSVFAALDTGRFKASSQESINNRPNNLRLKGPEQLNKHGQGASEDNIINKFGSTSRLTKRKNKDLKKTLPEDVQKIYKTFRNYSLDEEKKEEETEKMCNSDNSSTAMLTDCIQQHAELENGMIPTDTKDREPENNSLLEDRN
Protocol: (§1) Full-length human TREK-2 isoform 3 (NCBI accession no. NP_612191) was used throughout this study and was subcloned into the pFAW vector for expression in oocytes. The truncated construct used to generate protein (TREK-2ΔN/ΔC) is identical to that used previously to obtain crystal structures ([Dong et al., 2015]); it contains a deletion of 71 residues at the N terminus and 213 residues at the C terminus. […] Desamino chloro-fluoxetine (Toronto Research Chemicals) was dissolved in chloroform and diluted to working concentrations on the day of experimenting (maximum final concentration was 0.01%).
Oocytes were prepared for injection of mRNA by collagenase digestion followed by manual defolliculation and stored in ND96 solution that contained (in mM) 96 NaCl, 2 KCl, 1.8 CaCl2, 1 MgCl2, and 10 HEPES (pH 7.4) and was supplemented with 2.5 mM sodium pyruvate 50 µg/ml gentamycin, 50 µg/ml tetracycline, 50 µg/ml ciprofloxacin, and 100 µg/ml amikacin. Cells were injected with 1–4 ng mRNA up to 4 d after isolation. In vitro transcription of mRNA was done using the Amplicap SP6 Kit (Cambio). Experiments were performed 12–24 h after injection at room temperature (22°C unless otherwise indicated). For measurement and comparison of basal whole-cell currents, oocytes were injected with 4 ng RNA and recorded exactly 24 h after injection.
(§2) For currents recorded in Xenopus laevis oocytes, giant-patch electrodes were pulled from thick-walled borosilicate glass and polished to give pipette resistances of ∼0.3–0.5 MΩ when filled with patch solution. Pipette solution contained (in mM) 116 NMDG, 4 KCl, 1 MgCl2, 3.6 CaCl2, and 10 HEPES (pH 7.4), while the bath solution contained (in mM) 120 KCl, 1 NaCl, 2 EGTA, and 10 HEPES (pH 7.3). Patches were perfused via a gravity-flow perfusion system and a HEKA EPC 10 USB single computer–controlled amplifier was used and currents recorded using a Patchmaster v2 × 90.5 (HEKA Electronics), filtered at 1 kHz, and sampled at 10 kHz. For currents recorded in HEK293 cells, patch electrodes were pulled from thick-walled borosilicate glass and polished to give pipette resistances of ∼3–5 MΩ when filled with patch solution. The currents were recorded from excised patches with both intracellular and extracellular solution containing 200 mM KCl and 10 mM HEPES (pH 6.0 with KOH). Patches were perfused via a gravity-flow perfusion system. Data were acquired with pClamp and recorded using an Axopatch 200B (Molecular Devices), filtered at 5 kHz, and sampled at 200 kHz. Single-channel currents were analyzed in an identical manner to those obtained from bilayers (see above).
The macroscopic concentration–inhibition relationships in Figs. 1 and 2 were fitted with a modified Hill equation:
I/I0=a+1−a/1+([X]/IC50)^h, (1) where I and IO are the currents in the presence and absence of inhibitor, respectively, [X] is the concentration of inhibitor, IC50 is the inhibitor concentration at which the inhibition is half maximal, h is the Hill coefficient, and a is the fraction of unblockable current; a = 0, except where indicated in the legend to Fig. 1.
The macroscopic concentration–activation relationships in Fig. 1 E were fitted with a modified Hill equation: I/I0=a+(1−a)([X]/IC50)^h/1+([X]/IC50)^h, (2) where I and IO are the currents in the presence and absence of agonist, respectively, [X] is the concentration of agonist, IC50 is the agonist concentration at which the activation is half maximal, h is the Hill coefficient, and a is the fraction of initial current.

[2] = target: T2, WT TREK-2 (Homo sapiens, UniProt P57789); assay: Single-channel recordings of WT TREK-2 in excised patches from HEK293 cells; type: cell-based
T2 construct: full-length WT TREK-2 channels, we examined its effects on the mean open time of TREK-2 channels expressed in HEK293 cells; expressed in transfected cells; host or cells: HEK293 cells, transient transfection with pcDNA3
T2 sequence (P57789 1-543 isoform P57789-4): T1 sequence (P57789 1-543 isoform P57789-4)
Protocol: as §1
HEK293 cells were cultured in DMEM (Sigma) containing 10% FBS (Life Technologies), 3 mM glucose, and 2 mM glutamine at 37°C in a humidified atmosphere of 5% CO2/[…] at 37°C. Cells were transiently transfected with 0.2 µg channel pcDNA3 per dish using FuGENE 6 according to the manufacturer’s instructions. Cells were used 1–2 d after transfection.
as §2

h (Hill coefficient), BL1249 activation ([1]; BL1249 on its own): 1.9
h (Hill coefficient), BL1249 activation ([1]; in the presence of NFx): 1.4
SMILES: c1ccc(-c2nn[nH]n2)c(Nc2cccc3c2CCCC3)c1 [BL1249]

PO (single-channel open probability) ([2]; 10 µM, −40 mV): 0.04
reduction in γ (single-channel current amplitude) ([2]; 10 µM, −40 mV (Fig. 6B)): 15 ± 5%
reduction of channel Po ([2]; 10 µM, −40 mV (Fig. 6B)): 75 ± 0.05%
SMILES: FC(F)(F)c1ccc(O[C@@H](CCCl)c2ccccc2)cc1 [desamino chloro-fluoxetine, Desamino chloro-fluoxetine]

mean Po ([2]; 100 µM ML335, absence of NFx, −40 mV): 0.69 ± 0.2
SMILES: CS(=O)(=O)Nc1ccc(C(=O)NCc2ccc(Cl)cc2Cl)cc1 [ML335]
